{
  "source": "paper PMC5999578",
  "about": "(Journal of the American Chemical Society, 2018)",
  "biological_target": "VioC (Streptomyces vinaceus, UniProt Q6WZB0)",
  "sequence (Q6WZB0 whole entry)": "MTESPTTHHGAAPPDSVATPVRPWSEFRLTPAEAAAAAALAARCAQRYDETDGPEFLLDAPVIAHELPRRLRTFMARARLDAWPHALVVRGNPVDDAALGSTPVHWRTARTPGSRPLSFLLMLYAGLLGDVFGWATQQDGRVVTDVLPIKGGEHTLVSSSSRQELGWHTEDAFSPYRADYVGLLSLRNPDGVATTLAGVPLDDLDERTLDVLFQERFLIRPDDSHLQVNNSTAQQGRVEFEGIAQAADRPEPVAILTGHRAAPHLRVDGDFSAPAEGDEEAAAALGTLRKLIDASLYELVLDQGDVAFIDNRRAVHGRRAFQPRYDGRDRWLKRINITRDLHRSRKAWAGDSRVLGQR",
  "assay": "X-ray crystal structure, […] A",
  "assay_type": "binding",
  "conditions": "vanadyl (ferryl mimic) in place of Fe, L-hArg",
  "data": [
    {"compound": "O=C(O)CCC(=O)O", "note": "[succinate]", "values": [
      {"measurement": "X-ray crystal structure, 1.70 A", "value": "crystals of the VioC•VO•succinate•L-hArg complex"}
    ]}
  ]
}
